Test results taken from ChEMBL document CHEMBL4270495, “Oleanane-, ursane-, and quinone methide friedelane-type triterpenoid derivatives: Recent advances in cancer treatment” (Eur J Med Chem, 2017).

Key:
HeLa [1] = experiment: Cytotoxicity in human HeLa cells assessed as reduction in cell viability incubated for 72 hrs by MTT assay; assay type: functional, cell-based
MCF7 [2] = experiment: Cytotoxicity in human MCF7 cells assessed as reduction in cell viability incubated for 72 hrs by MTT assay; assay type: functional, cell-based; details: MCF7, 72 h
HT-29 = experiment: Cytotoxicity in human HT-29 cells assessed as reduction in cell viability incubated for 72 hrs by MTT assay; assay type: functional, cell-based; details: HT-29, 72 h
SMMC-7721 = experiment: Cytotoxicity in human SMMC7721 cells assessed as reduction in cell viability incubated for 48 hrs by MTT assay; assay type: functional, cell-based; details: SMMC-7721, 48 h
HepG2 [3] = experiment: Cytotoxicity in human HepG2 cells assessed as reduction in cell viability incubated for 48 hrs by MTT assay; assay type: functional, cell-based; details: HepG2, 48 h
A-375 = experiment: Cytotoxicity in human A375 cells assessed as reduction in cell viability incubated for 24 hrs by MTT assay; assay type: functional, cell-based; details: A-375, 24 h
[4] = Cytotoxicity in human SPC-A1 cells assessed as reduction in cell viability incubated for 24 hrs by MTT assay; assay type: functional, cell-based; details: SPCA1, 24 h
NCI-H446 = experiment: Cytotoxicity in human NCI-H446 cells assessed as reduction in cell viability incubated for 24 hrs by MTT assay; assay type: functional, cell-based; details: NCI-H446, 24 h
SGC-7901 [5] = experiment: Cytotoxicity in human SGC7901 cells assessed as reduction in cell viability incubated for 48 hrs by MTT assay; assay type: functional, cell-based; details: SGC-7901, 48 h
T47D = experiment: Cytotoxicity in human T47D cells assessed as reduction in cell viability incubated for 24 hrs by MTT assay; assay type: functional, cell-based
MCF7 [6] = experiment: Cytotoxicity in human MCF7 cells assessed as reduction in cell viability incubated for 24 hrs by MTT assay; assay type: functional, cell-based; details: MCF7, 24 h
HL60/ADR = experiment: Cytotoxicity in human HL60/ADR cells assessed as reduction in cell viability incubated for 24 hrs by MTT assay; assay type: functional, cell-based
HL-60 = experiment: Cytotoxicity in human HL60 cells assessed as reduction in cell viability incubated for 24 hrs by MTT assay; assay type: functional, cell-based; details: HL-60, 24 h
MDA-MB-231 [7] = experiment: Cytotoxicity in human MDA-MB-231 cells assessed as reduction in cell viability incubated for 24 hrs by MTT assay; assay type: functional, cell-based; details: MDA-MB-231, 24 h
MCF-12A = experiment: Cytotoxicity in human MCF12A cells assessed as reduction in cell viability incubated for 24 hrs by MTT assay; assay type: functional, cell-based
MDA-MB-468 = experiment: Cytotoxicity in human MDA-MB-468 cells assessed as reduction in cell viability incubated for 24 hrs by MTT assay; assay type: functional, cell-based; details: MDA-MB-468, 24 h
MCF7 [8] = experiment: Cytotoxicity in human MCF7 cells assessed as reduction in cell viability incubated for 72 hrs by CCK8 assay; assay type: functional, cell-based; details: MCF7, 72 h
PC-3 = experiment: Cytotoxicity in human PC3 cells assessed as reduction in cell viability incubated for 72 hrs by CCK8 assay; assay type: functional, cell-based; details: PC-3, 72 h
A549 = experiment: Cytotoxicity in human A549 cells assessed as reduction in cell viability incubated for 72 hrs by CCK8 assay; assay type: functional, cell-based; details: A549, 72 h
HepG2 [9] = experiment: Cytotoxicity in human HepG2 cells assessed as reduction in cell viability incubated for 72 hrs by CCK8 assay; assay type: functional, cell-based; details: HepG2, 72 h
HeLa [10] = experiment: Cytotoxicity in human HeLa cells assessed as reduction in cell viability incubated for 72 hrs by CCK8 assay; assay type: functional, cell-based
SGC-7901 [11] = experiment: Cytotoxicity in human SGC7901 cells assessed as reduction in cell viability incubated for 72 hrs by CCK8 assay; assay type: functional, cell-based; details: SGC-7901, 72 h
MDA-MB-231 [12] = experiment: Cytotoxicity in human MDA-MB-231 cells assessed as reduction in cell viability incubated for 48 hrs by SRB assay; assay type: functional; details: MDA-MB-231, 48 h
MCF7 [13] = experiment: Cytotoxicity in human MCF7 cells assessed as reduction in cell viability incubated for 48 hrs by SRB assay; assay type: functional, cell-based; details: MCF7, 48 h
BGC-823 = experiment: Cytotoxicity in human BGC823 cells assessed as reduction in cell viability; assay type: functional, cell-based
HeLa [14] = experiment: Cytotoxicity in human HeLa cells assessed as reduction in cell viability; assay type: functional, cell-based

Q: Which results are given for COC(=O)[C@]12CC[C@@H](C)[C@H](C)[C@H]1C1=CC(=O)[C@@H]3[C@@]4(C)C(C#N)=C[C@@](C)(COS(C)(=O)=O)[C@@H]4CC[C@@]3(C)[C@]1(C)CC2?
A: IC50 (HeLa [1]): 7.27 µM; IC50 (MCF7 [2]): 19.5 µM; IC50 (HT-29): 9.77 µM

Q: For COC1=C(Br)C(=O)c2c([nH]c3c2C[C@]2(C)[C@H]4CC=C5[C@@H]6[C@@H](C)[C@H](C)CC[C@]6(C(=O)O)CC[C@@]5(C)[C@]4(C)CC[C@H]2C3(C)C)C1=O, which IC50 (SMMC-7721) is on record?
A: 1.2 µM

Q: And the IC50 (HepG2 [3])?
A: 1.6 µM

Q: Which IC50 (A-375) does the source give for CC(=O)OC[C@]1(C)[C@@H]2CC[C@]3(C)[C@H](C(=O)C=C4[C@H]5[C@](C(=O)OCC(=O)N/N=C/c6ccc(C)cc6)(CC[C@@H](C)[C@@]5(C)O)CC[C@]43C)[C@@]2(C)CC[C@@H]1OC(C)=O here?
A: 6.5 µM

Q: What about the IC50 [4] of the same compound?
A: 7.4 µM

Q: What about the IC50 (NCI-H446) of the same compound?
A: 15 µM

Q: Which results are given for CC1=C(O)C(=O)C=C2C1=CC=C1[C@@]2(C)CC[C@@]2(C)[C@@H]3C[C@](C)(C(=O)NCC(C)O)CC[C@]3(C)CC[C@]12C (some centres not stated)?
A: IC50 (SMMC-7721): 0.61 µM; IC50 (SGC-7901 [5]): 0.1 µM

Q: Which results are given for CC(=O)OC[C@]1(C)[C@@H]2CC[C@]3(C)[C@H](C(=O)C=C4[C@H]5[C@](C(=O)OCC(=O)N/N=C/c6ccc(Cl)cc6)(CC[C@@H](C)[C@@]5(C)O)CC[C@]43C)[C@@]2(C)CC[C@@H]1OC(C)=O?
A: IC50 (A-375): > 100 µM; IC50 [4]: > 100 µM; IC50 (NCI-H446): > 100 µM

Q: For COC(=O)[C@]12CCC(C)(C)C[C@H]1C1=CC(=O)[C@@H]3[C@@]4(C)CC/C(=N\O)C(C)(C)[C@@H]4CC[C@@]3(C)[C@]1(C)CC2, which IC50 (T47D) is on record?
A: 10.1 µM

Q: And the IC50 (MCF7 [6])?
A: 3.22 µM

Q: What about the IC50 (HL60/ADR) of the same compound?
A: 3.58 µM

Q: And the IC50 (HL-60)?
A: 3.72 µM

Q: What about the IC50 (MDA-MB-231 [7]) of the same compound?
A: 21.1 µM

Q: And the IC50 (MCF-12A)?
A: 25.7 µM

Q: What about the IC50 (MDA-MB-468) of the same compound?
A: 4.25 µM

Q: Which results are given for COC(=O)C(C)NC(=O)[C@]12CC[C@@H](C)[C@H](C)[C@H]1C1=CC[C@@H]3[C@@]4(C)C[C@@H](OC(C)=O)[C@H](OC(C)=O)[C@@](C)(COC(C)=O)[C@@H]4CC[C@@]3(C)[C@]1(C)CC2 (some centres not stated)?
A: IC50 (MCF7 [8]): 3.9 µM; IC50 (PC-3): 10.1 µM; IC50 (A549): 3.1 µM; IC50 (HepG2 [9]): 0.3 µM; IC50 (HeLa [10]): 5.1 µM; IC50 (SGC-7901 [11]): 9.2 µM

Q: Which results are given for CC1(C)CC[C@]2(C(=O)O)CC[C@]3(C)C(=CC[C@@H]4[C@@]5(C)CC[C@H](O)C(C)(C)[C@@H]5CC[C@]43C)[C@@H]2C1 [OLEANOLIC_ACID]?
A: IC50 (T47D): 36.2 µM; IC50 (MCF7 [6]): 12.7 µM; IC50 (HL60/ADR): 28.8 µM; IC50 (HL-60): 14.8 µM; GI50 (MDA-MB-231 [12]): 17.6 µM; IC50 (MDA-MB-231 [7]): > 50 µM; IC50 (MCF-12A): > 50 µM; GI50 (MCF7 [13]): 10.3 µM; IC50 (MDA-MB-468): 38.1 µM

Q: For CCCC(=O)OC[C@]1(C)C=C(C=O)[C@@]2(C)[C@H]1CC[C@]1(C)[C@@H]2C(=O)C=C2[C@@H]3[C@@H](C)[C@H](C)CC[C@]3(C(=O)OC)CC[C@]21C, which IC50 (HeLa [1]) is on record?
A: 0.49 µM

Q: What about the IC50 (MCF7 [2]) of the same compound?
A: 0.88 µM

Q: And the IC50 (HT-29)?
A: 0.77 µM

Q: Which IC50 (PC-3) does the source give for CC(=O)OC[C@@]1(C)[C@@H]2CC[C@]3(C)[C@H](CC=C4[C@@H]5[C@@H](C)[C@H](C)CC[C@]5(C(=O)O)CC[C@]43C)[C@@]2(C)C[C@@H](OC(C)=O)[C@@H]1OC(C)=O here?
A: 17.5 µM

Q: What about the IC50 (A549) of the same compound?
A: 21.1 µM

Q: What about the IC50 (HepG2 [9]) of the same compound?
A: 10.2 µM

Q: And the IC50 (HeLa [10])?
A: 24.2 µM

Q: With CC(=O)O[C@H]1CC[C@]2(C)[C@H]3CC=C4[C@@H]5[C@@H](C)[C@H](C)CC[C@]5(C(=O)N5CCOCC5)CC[C@@]4(C)[C@]3(C)CC[C@H]2C1(C)C as the compound, how does the IC50 (BGC-823) read?
A: > 10 µM

Q: What about the IC50 (HeLa [14]) of the same compound?
A: 2.2 µM

Q: For CC(=O)OC[C@]1(C)[C@@H]2CC[C@]3(C)[C@H](C(=O)C=C4[C@H]5[C@](C(=O)OCC(=O)N/N=C/c6ccccc6)(CC[C@@H](C)[C@@]5(C)O)CC[C@]43C)[C@@]2(C)CC[C@@H]1OC(C)=O, which IC50 (A-375) is on record?
A: 3.1 µM

Q: And the IC50 [4]?
A: 8.6 µM

Q: What about the IC50 (NCI-H446) of the same compound?
A: 11.7 µM
